Reference: US20150352108A1, “AMINO-PYRIMIDINE COMPOUNDS AS INHIBITORS OF TBK1 AND/OR IKK EPSILON” (Alzheimer's Institute of America, priority 2009, published 2015)
Like-named read-outs stand apart in the source and are kept apart here.

Assays:
TBK1 = molecular target: T1, TBK1 (Homo sapiens, UniProt Q9UHD2); assay: In-vitro TBK1 kinase assay ([γ33]ATP filter-plate); format: biochemical
T1 construct: His-tag; made in house; host or cells: Sf9 insect cells
T1 sequence (Q9UHD2 1-729): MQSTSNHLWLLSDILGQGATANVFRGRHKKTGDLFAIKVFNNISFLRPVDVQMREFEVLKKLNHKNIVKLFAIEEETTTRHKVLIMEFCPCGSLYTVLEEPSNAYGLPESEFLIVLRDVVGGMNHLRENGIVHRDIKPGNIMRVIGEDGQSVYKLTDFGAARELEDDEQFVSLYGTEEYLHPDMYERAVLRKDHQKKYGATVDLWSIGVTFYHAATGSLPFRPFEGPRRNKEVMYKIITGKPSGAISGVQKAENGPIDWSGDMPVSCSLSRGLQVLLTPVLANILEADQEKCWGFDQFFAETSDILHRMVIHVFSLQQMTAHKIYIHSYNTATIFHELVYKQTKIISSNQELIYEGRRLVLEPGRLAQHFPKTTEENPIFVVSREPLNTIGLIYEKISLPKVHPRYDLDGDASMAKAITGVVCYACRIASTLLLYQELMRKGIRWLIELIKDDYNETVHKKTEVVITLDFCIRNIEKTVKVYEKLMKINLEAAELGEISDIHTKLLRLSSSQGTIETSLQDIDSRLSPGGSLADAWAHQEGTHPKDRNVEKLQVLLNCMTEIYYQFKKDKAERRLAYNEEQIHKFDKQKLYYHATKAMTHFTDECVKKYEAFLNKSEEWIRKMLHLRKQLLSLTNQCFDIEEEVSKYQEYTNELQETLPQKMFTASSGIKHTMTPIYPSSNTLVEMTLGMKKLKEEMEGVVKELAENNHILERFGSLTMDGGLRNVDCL
In short: (§1)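 Phosphorylation of casein or myelin basic protein was counted by P-81 filter capture after 30-45 min reactions stopped with phosphoric acid, with counts normalized to DMSO after background subtraction. ATP was twice Km: 60 μM for TBK1 and 32 μM for IKKε, plus [γ33]ATP. Sf9-expressed His-tag enzymes were used at normal/sensitized levels of 0.1/0.02 μg/ml (TBK1) and 0.1/0.015 μg/ml (IKKε).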

IKKε = molecular target: T2, IKKε (Homo sapiens, UniProt Q14164); assay: In-vitro IKKε kinase assay ([γ33]ATP filter-plate); format: biochemical
T2 construct: His-tag; made in house; host or cells: Sf9 insect cells
T2 sequence (Q14164 1-716): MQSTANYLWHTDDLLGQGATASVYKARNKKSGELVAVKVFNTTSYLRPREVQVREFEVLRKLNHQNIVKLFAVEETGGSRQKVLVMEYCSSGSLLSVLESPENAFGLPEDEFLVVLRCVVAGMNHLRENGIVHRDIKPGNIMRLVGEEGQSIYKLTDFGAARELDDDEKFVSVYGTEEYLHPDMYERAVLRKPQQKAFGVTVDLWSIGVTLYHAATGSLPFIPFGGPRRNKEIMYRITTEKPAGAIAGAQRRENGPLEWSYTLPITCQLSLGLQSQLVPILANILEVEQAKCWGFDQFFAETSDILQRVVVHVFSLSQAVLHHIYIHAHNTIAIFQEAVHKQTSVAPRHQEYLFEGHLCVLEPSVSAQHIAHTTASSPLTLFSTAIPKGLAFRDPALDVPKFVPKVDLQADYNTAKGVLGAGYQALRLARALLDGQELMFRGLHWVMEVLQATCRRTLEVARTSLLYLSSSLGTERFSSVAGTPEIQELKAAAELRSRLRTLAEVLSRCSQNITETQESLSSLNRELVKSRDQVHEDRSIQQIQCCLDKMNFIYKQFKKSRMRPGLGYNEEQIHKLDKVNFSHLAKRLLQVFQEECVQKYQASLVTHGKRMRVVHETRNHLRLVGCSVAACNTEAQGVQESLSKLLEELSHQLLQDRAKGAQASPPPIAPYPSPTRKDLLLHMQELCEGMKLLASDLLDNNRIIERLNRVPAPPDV
In short: as §1

[1] = text bins, read-out: IC50 for inhibition of the kinase activity of TBK1
[2] = text bins, read-out: IC50 for inhibition of the kinase activity of IKKε

SMILES	IC50 (TBK1; [1]) [nM]	IC50 (IKKε; [2]) [nM]	IC50 (TBK1; Table 3, read-out: TBK1 IC50) [nM]	IC50 (IKKε; Table 3, read-out: IKKε IC50) [nM]
COc1cc(C#N)cc(-c2ccnc(Nc3ccc(N4CCOCC4)cc3)n2)c1 [Example 241, 3-Methoxy-5-(2-{[4-(morpholin-4-yl)phenyl]amino}pyrimidin-4-yl)benzonitrile]	10 to 100	5 to 50		
COc1ccc(-c2ccnc(Nc3ccc(N4CCCNC(=O)C4)c(OC)c3)n2)cc1C#N [Example 104, 2-Methoxy-5-(2-{[3-methoxy-4-(3-oxo-1,4-diazepan-1-yl)phenyl]amino}pyrimidin-4-yl)benzonitrile]	< 10	< 5		
N#Cc1cc(-c2ccnc(Nc3ccc(N4CCOCC4)cc3)n2)ccc1OC1CCN(C(=O)CO)C1 (stereo not drawn) [Example 96, 2-{[1-(Hydroxyacetyl)pyrrolidin-3-yl]oxy}-5-(2-{[4-(morpholin-4-yl)phenyl]amino}pyrimidin-4-yl)benzonitrile]	< 10	< 5		
CCN(CC)CCN(CC)C(=O)Cc1cccc(Nc2nccc(-c3ccc(OC4CCOCC4)c(C#N)c3)n2)c1 [compound 409, 2-[3-({4-[3-Cyano-4-(tetrahydro-2H-pyran-4-yloxy)phenyl]pyrimidin-2-yl}amino)phenyl]-N-[2-(diethylamino)ethyl]-N-ethylacetamide]	< 10	5 to 50		
N#Cc1cc(-c2ccnc(Nc3ccc(N4CCOCC4)cc3)n2)ccc1OCCC1CCN(C(=O)CO)CC1 [compound 457, 2-{2-[1-(hydroxyacetyl)piperidin-4-yl]ethoxy}-5-(2-{[4-(morpholin-4-yl)phenyl]amino}pyrimidin-4-yl)benzonitrile]	10 to 100	5 to 50		
CNCCCNS(=O)(=O)c1ccc(Nc2nccc(-c3ccc(OC4CCOCC4)c(C#N)c3)n2)cc1OC [compound 396]	< 10	< 5		
CC(C)C(=O)Nc1ccc(-c2ccnc(Nc3ccc(CCN4CCOCC4)cc3)n2)cc1C#N [compound 463, N-{2-cyano-4-[2-({4-[2-(morpholin-4-yl)ethyl]phenyl}amino)pyrimidin-4-yl]phenyl}-2-methylpropanamide]	10 to 100	5 to 50		
COc1cc(Nc2nccc(-c3ccc(OC4CCN(C(C)=O)CC4)c(C#N)c3)n2)ccc1N1CCNC(=O)C1 [Example 134, 2-[(1-Acetylpiperidin-4-yl)oxy]-5-(2-{[3-methoxy-4-(3-oxopiperazin-1-yl)phenyl]amino}pyrimidin-4-yl)benzonitrile]	< 10	< 5		
COc1ccc(Nc2nc(-c3cccc(C#N)c3)c3nc[nH]c3n2)cc1OC [compound 390, 3-{2-[(3,4-Dimethoxyphenyl)amino]-3H-purin-6-yl}benzonitrile]	100 to 500	50 to 500		
CC(C)Nc1ccc(-c2ccnc(Nc3ccc(N4CCOCC4)cc3)n2)cc1C#N [Example 211, 5-(2-{[4-(Morpholin-4-yl)phenyl]amino}pyrimidin-4-yl)-2-(propan-2-ylamino)benzonitrile]	< 10	< 5		
N#Cc1cccc(-c2ccnc(Nc3ccc(N4CCOCC4)cc3)n2)c1 [compound 322, 3-(2-{[4-(Morpholin-4-yl)phenyl]amino}pyrimidin-4-yl)benzonitrile]	10 to 100	50 to 500		
CC(C)C(=O)Nc1ccc(-c2ccnc(Nc3cccc(CC(=O)N4CCOCC4)c3)n2)cc1C#N [compound 421, N-{2-cyano-4-[2-({3-[2-(morpholin-4-yl)-2-oxoethyl]phenyl}amino)pyrimidin-4-yl]phenyl}-2-methylpropanamide]	10 to 100	5 to 50		
COc1ccc(-c2ccnc(Nc3ccc(OC)c(OCCN4CCOCC4)c3)n2)cc1C#N [compound 368, 2-Methoxy-5-[2-({4-methoxy-3-[2-(morpholin-4-yl)ethoxy]phenyl}amino)pyrimidin-4-yl]benzonitrile]	10 to 100	5 to 50		
N#Cc1cc(-c2ccnc(Nc3ccc(N4CCOCC4)cc3)n2)ccc1N [Example 217, 2-Amino-5-(2-{[4-(morpholin-4-yl)phenyl]amino}pyrimidin-4-yl)benzonitrile]	< 10	5 to 50		
CC(C)NC(=O)Nc1ccc(-c2ccnc(Nc3ccc(N4CCOCC4)cc3)n2)cc1C#N [Example 60, 1-[2-cyano-4-(2-{[4-(morpholin-4-yl)phenyl]amino}pyrimidin-4-yl)phenyl]-3-propan-2-ylurea]	10 to 100	5 to 50		
N#Cc1cc(-c2ccnc(Nc3ccc(CS(=O)(=O)NCCO)cc3)n2)ccc1NC(=O)C1CC1 [compound 566, N-(2-Cyano-4-{2-[(4-{[(2-hydroxyethyl)sulfamoyl]methyl}phenyl)amino]pyrimidin-4-yl}phenyl) cyclopropane-carboxamide]	< 10	< 5		
COc1cc(Nc2nccc(-c3ccc(OC4CCN(C(=O)[C@H](C)O)C4)c(C#N)c3)n2)ccc1N1CCOCC1 (stereo partly drawn) [Example 116, 2-({1-[(2S)-2-hydroxypropanoyl]pyrrolidin-3-yl}oxy)-5-(2-{[3-methoxy-4-(morpholin-4-yl)phenyl]amino}pyrimidin-4-yl)benzonitrile]	< 10	5 to 50		
N#Cc1cc(-c2ccnc(Nc3ccc(CS(=O)(=O)NCCO)cc3)n2)ccc1OCC1CC1 [compound 637, 1-[4-({4-[3-Cyano-4-(cyclopropylmethoxy)phenyl]pyrimidin-2-yl}amino)phenyl]-N-(2-hydroxyethyl) methanesulfonamide]	< 10	< 5		
COC(=O)C(C)Oc1ccc(-c2ccnc(Nc3ccc(N4CCOCC4)cc3)n2)cc1C#N (stereo not drawn) [Example 63, Methyl 2-[2-cyano-4-(2-{[4-(morpholin-4-yl)phenyl]amino}pyrimidin-4-yl)phenoxy] propanoate]	10 to 100	5 to 50		
CC(C)COc1ccc(-c2ccnc(Nc3cccc(CS(=O)(=O)NCCO)c3)n2)cc1C#N [compound 534, 1-[3-({4-[3-Cyano-4-(2-methylpropoxy)phenyl]pyrimidin-2-yl}amino)phenyl]-N-(2-hydroxyethyl) methanesulfonamide]	< 10	< 5	0.4	0.8
CC(C)(C)OC(=O)NCc1ccc(Nc2nccc(-c3ccc(OC4CCOCC4)c(C#N)c3)n2)cc1 [compound 491, tert-butyl [4-({4-[3-cyano-4-(tetrahydro-2H-pyran-4-yloxy)phenyl]pyrimidin-2-yl}amino)benzyl] carbamate]	< 10	5 to 50		
COc1cc(C#N)cc(-c2ccnc(Nc3ccc(OC)c(OC)c3)n2)c1 [Example 172, 3-{2-[(3,4-Dimethoxyphenyl)amino]pyrimidin-4-yl}-5-methoxybenzonitrile]	10 to 100	5 to 50		
N#Cc1cc(-c2ccnc(Nc3ccc(N4CCOCC4)cc3)n2)ccc1NCc1ccccc1 [Example 224]	10 to 100	5 to 50		
COc1cc(Nc2nccc(-c3ccc(OC4CCOCC4)c(C#N)c3)n2)ccc1OCCOCCNS(=O)(=O)N1CCOCC1 [Example 29, N-(2-{2-[4-({4-[3-cyano-4-(tetrahydro-2H-pyran-4-yloxy)phenyl]pyrimidin-2-yl}amino)-2-methoxyphenoxy]ethoxy}ethyl) morpholine-4-sulfonamide]	< 10	< 5		
N#Cc1cc(-c2ccnc(Nc3cccc(CS(=O)(=O)NCCO)c3)n2)ccc1OCC1CC1 [compound 611, 1-[3-({4-[3-Cyano-4-(cyclopropylmethoxy)phenyl]pyrimidin-2-yl}amino)phenyl]-N-(2-hydroxyethyl) methanesulfonamide]	< 10	< 5	0.6	1.5
